Measured values reported in patent US7288541B2, “Propylcarbamate derivatives as inhibitors of serine and cysteine proteases” (SmithKline Beecham Corporation, priority 2001, dated 2007).

What follows are compounds tested against T1, human cathepsin K (Homo sapiens, UniProt P43235) (assay: Cathepsin K inhibition, fluorogenic substrate Cbz-Phe-Arg-AMC, progress curve method). Details: not given.
T1 construct: The proform of cathepsin K was converted to mature cathepsin K by brief exposure to pH 4; made in house; host or cells: baculovirus; Trichoplusia ni High Five cells (virus raised in Sf-9)
T1 sequence (P43235 115-329): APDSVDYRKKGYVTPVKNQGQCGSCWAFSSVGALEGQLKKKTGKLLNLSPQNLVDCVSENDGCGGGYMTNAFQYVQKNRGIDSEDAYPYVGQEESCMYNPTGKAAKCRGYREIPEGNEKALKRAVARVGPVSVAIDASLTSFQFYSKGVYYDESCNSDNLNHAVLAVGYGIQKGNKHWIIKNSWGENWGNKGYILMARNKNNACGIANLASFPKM
Format: biochemical
Experimental: All assays for cathepsin K were carried out with human and rat recombinant enzyme. Assays for cathepsins S & V were also carried out with human recombinant enzyme. Assays for human cathepsins B, H, and L were carried out with enzyme prepared from human liver tissue. […] A stock substrate solution of Cbz-Phe-Arg-AMC was prepared at a concentration of 50 mM in dimethyl sulfoxide. This substrate was diluted into the assay for a final substrate concentration of 10 μM in the rat cathepsin K, human cathepsin K, and human cathepsin B assays; a final substrate concentration of 5 μM in the human cathepsin L assay; and a final substrate concentration of 2 μM in the human cathepsin V assay.
All assays contained 10% dimethyl sulfoxide. […] All assays were conducted at 30° C. Product fluorescence (excitation at 360 nm; emission at 440 nm, (except cathepsin H which used excitation at 340 nm; emission at 420 nm)) was monitored with a PerSeptive Biosystems Cytofluor II fluorescence plate reader. Product progress curves were generated over 2.3 h monitoring the formation of 7-amino-4-methylcoumarin product (or β-naphthalamide for cathepsin H).
Human and Rat Cathepsin K:
The cells continued to grow for 72 h post-infection, before the virus was harvested by centrifugation at 1400×g for 30 min.
One and one-half liters of Trichoplusia ni (T. ni) High Five (TM) cells [JRH Biosciences, Woodland, Calif. […] The cells were grown for 24 h at 28° C., 50 RPM, and 50% dissolved oxygen. […] Media were separated from cells at a rate of 1 L/min using the Centritech 100 (TM) continuous-flow centrifuge (DuPont) operating at 200×g.
Protein Purification: Media (human and rat) were filtered through a Whatman 3 filter, and then loaded onto a 25 mL Poros HS II (26 mm×47 mm) cation exchange column equilibrated in 25 mM sodium acetate at pH 5.5 (equilibration buffer). The column was washed until the absorbance reached the baseline value, and then the protein was eluted with a linear gradient from 0–2 M sodium chloride in the equilibration buffer. Column fractions were analyzed by SDS-PAGE, N-terminal sequencing, and mass spectrometry. Fractions containing the proform of cathepsin K were pooled and frozen at −80° C. The proform was concentrated in an Amicon Centriprep 10 and fractionated with a Superdex 75 column (26 mm×600 mm, Pharmacia) equilibrated in 400 mM sodium chloride, 25 mM sodium acetate at pH 5.5.
Cathepsin K Activation: The proform of cathepsin K was converted to mature cathepsin K by brief exposure to pH 4 in the presence of 5 mM L-cysteine. Typically, 5 mM L-cysteine was added to 10 mL of approximately 1 mg/mL procathepsin K. One mL of this solution was diluted ten-fold into 450 mM sodium acetate at pH 4.0 containing 5 mM L-cysteine. This solution was reacted at 23° C. for 2 min before neutralization with 2 mL 1.8 M sodium acetate at pH 6.0. The neutralized sample was added to the remaining 9 mL of procathepsin K. The mixture was incubated at 4° C. for 2–3 days. The activated cathepsin K was chromatographed on a Poros HS II column as described above.
Potential inhibitors were evaluated using the progress curve method. Assays were carried out in the presence of variable concentrations of test compound. Reactions were initiated by addition of buffered solutions of inhibitor and substrate to enzyme. Data analysis was conducted according to one of two procedures depending on the appearance of the progress curves in the presence of inhibitors. […] Ki values were calculated from IC50 values using equation 2 assuming a competitive model.
With `CCCC[C@H](NC(=O)O[C@H](Cn1ccc(-c2ccc(C(F)(F)F)cc2)n1)C(C)(C)C)C(=O)CNC(=O)N1CCOCC1` [Example 4, (1S)-2,2-dimethyl-1-({3-[4-(trifluoromethyl)phenyl]-1H-pyrazol-1-yl}methyl)propyl (1S)-1-{[(4-morpholinylcarbonyl)amino]acetyl}pentylcarbamate] the IC50 was 1000 to 10000 nM.

Same assay, conditions: Table 1, Inhibition of Cathepsin K (Ki in nM); recombinant human enzyme, 10 μM substrate, pH 5.5, 30° C.; read-out: hCat K IC50
`CC(C)(C)[C@@H](Cn1ccc(-c2ccc(C(F)(F)F)cc2)n1)OC(=O)NCC(=O)CNS(=O)(=O)c1ccccn1` [Example 1, (1S)-2,2-dimethyl-1-({3-[4-(trifluoromethyl)phenyl]-1H-pyrazol-1-yl}methyl)propyl 2-oxo-3-[(2-pyridinylsulfonyl)amino]propylcarbamate] gave an IC50 of 10 to 100 nM.
Work on `C[C@H](NC(=O)O[C@H](Cn1ccc(-c2ccc(C(F)(F)F)cc2)n1)C(C)(C)C)C(=O)CNS(=O)(=O)c1ccccn1` [Example 2, (1S)-2,2-dimethyl-1-({3-[4-(trifluoromethyl)phenyl]-1H-pyrazol-1-yl}methyl)propyl (1S)-1-methyl-2-oxo-3-[(2-pyridinylsulfonyl)amino]propylcarbamate] yielded an IC50 of 10 to 100 nM.
`CCCC[C@H](NC(=O)O[C@H](Cn1ccc(-c2ccc(C(F)(F)F)cc2)n1)C(C)(C)C)C(=O)CNS(=O)(=O)c1ccccn1` [Example 3, (1S)-2,2-dimethyl-1-({3-[4-(trifluoromethyl)phenyl]-1H-pyrazol-1-yl}methyl)propyl (1S)-1-{[(2-pyridinylsulfonyl)amino]acetyl}pentylcarbamate] gave an IC50 of 10 to 100 nM.
For `CCCC[C@H](NC(=O)O[C@H](Cn1ccc(-c2ccc(C(F)(F)F)cc2)n1)C(C)(C)C)C(=O)CNc1cccc(F)n1` [Example 5, (1S)-2,2-dimethyl-1-({3-[4-(trifluoromethyl)phenyl]-1H-pyrazol-1-yl}methyl)propyl (1S)-1-{[(6-fluoro-2-pyridinyl)amino]acetyl}pentylcarbamate], the IC50 was under 10 nM.
In the case of `CCCC[C@H](NC(=O)O[C@H](Cn1ccc(C(F)(F)F)n1)C(C)(C)C)C(=O)CNS(=O)(=O)c1ccccn1` [Example 7, (1S)-2,2-dimethyl-1-{[3-(trifluoromethyl)-1H-pyrazol-1-yl]methyl}propyl (1S)-1-{[(2-pyridinylsulfonyl)amino]acetyl}pentylcarbamate], the IC50 is reported as 10 to 100 nM.
`C[C@H](NC(=O)O[C@H](Cn1ccc(C(F)(F)F)n1)C(C)(C)C)C(=O)CNS(=O)(=O)c1ccccn1` [Example 8, (1S)-2,2-dimethyl-1-{[3-(trifluoromethyl)-1H-pyrazol-1-yl]methyl}propyl (1S)-1-methyl-2-oxo-3-[(2-pyridinylsulfonyl)amino]propylcarbamate] was tested, and the IC50 was 100 to 1000 nM.
With `CCCC[C@H](NC(=O)O[C@H](c1nc2cc(C(F)(F)F)ccc2s1)C(C)(C)C)C(=O)CNS(=O)(=O)c1ccccn1` [Example 9, (1S)-2,2-dimethyl-1-[5-(trifluoromethyl)-1,3-benzothiazol-2-yl]propyl (1S)-1-{[(2-pyridinylsulfonyl)amino]acetyl}pentylcarbamate] the IC50 was 10 to 100 nM.
In the case of `C[C@H](NC(=O)O[C@H](c1nc2cc(C(F)(F)F)ccc2s1)C(C)(C)C)C(=O)CNS(=O)(=O)c1ccccn1` [Example 10, (1S)-2,2-dimethyl-1-[5-(trifluoromethyl)-1,3-benzothiazol-2-yl]propyl (1S)-1-methyl-2-oxo-3-[(2-pyridinylsulfonyl)amino]propylcarbamate], the IC50 is reported as 100 to 1000 nM.
In the case of `CCCC[C@H](NC(=O)O[C@H](Cn1cc(-c2ccc(C(F)(F)F)cc2)cn1)C(C)(C)C)C(=O)CNS(=O)(=O)c1ccccn1` [Example 11, (1S)-2,2-dimethyl-1-({4-[4-(trifluoromethyl)phenyl]-1H-pyrazol-1-yl}methyl)propyl (1S)-1-{[(2-pyridinylsulfonyl)amino]acetyl}pentylcarbamate], the IC50 is reported as 10 to 100 nM.
In the case of `CCCC[C@H](NC(=O)O[C@H](Cn1nccc1-c1ccc(C(F)(F)F)cc1)C(C)(C)C)C(=O)CNS(=O)(=O)c1ccccn1` [Example 12, (1S)-2,2-dimethyl-1-({5-[4-(trifluoromethyl)phenyl]-1H-pyrazol-1-yl}methyl)propyl (1S)-1-{[(2-pyridinylsulfonyl)amino]acetyl}pentylcarbamate], the IC50 is reported as 10 to 100 nM.
`CCCC[C@H](NC(=O)O[C@H](Cn1ccc(-c2cccnc2)n1)C(C)(C)C)C(=O)CNS(=O)(=O)c1ccccn1` [Example 13, (1S)-2,2-dimethyl-1-{[3-(3-pyridinyl)-1H-pyrazol-1-yl]methyl}propyl (1S)-1-{[(2-pyridinylsulfonyl)amino]acetyl}pentylcarbamate] was tested, and the IC50 was under 10 nM.
In the case of `CCCC[C@H](NC(=O)O[C@H](Cn1ccc(-c2ccncc2)n1)C(C)(C)C)C(=O)CNS(=O)(=O)c1ccccn1` [Example 14, (1S)-2,2-dimethyl-1-{[3-(4-pyridinyl)-1H-pyrazol-1-yl]methyl}propyl (1S)-1-{[(2-pyridinylsulfonyl)amino]acetyl}pentylcarbamate], the IC50 is reported as under 10 nM.
`CCCC[C@H](NC(=O)O[C@H](Cn1cnc2cc(Cl)c(Cl)cc21)C(C)(C)C)C(=O)CNS(=O)(=O)c1ccccn1` [Example 15, (1S)-1-[(5,6-dichloro-1H-benzimidazol-1-yl)methyl]-2,2-dimethylpropyl (1S)-1-{[(2-pyridinylsulfonyl)amino]acetyl}pentylcarbamate] showed an IC50 of under 10 nM.
For `CC(C)(C)[C@@H](Cn1cnc2cc(Cl)c(Cl)cc21)OC(=O)NCC(=O)CNS(=O)(=O)c1ccccn1` [Example 17, (1S)-1-[(5,6-dichloro-1H-benzimidazol-1-yl)methyl]-2,2-dimethylpropyl 2-oxo-3-[(2-pyridinylsulfonyl)amino]propylcarbamate], the IC50 was under 10 nM.
`CCCC[C@H](NC(=O)O[C@H](Cn1cnc(-c2ccc(C(F)(F)F)cc2)c1)C(C)(C)C)C(=O)CNS(=O)(=O)c1ccccn1` [Example 18, (1S)-2,2-dimethyl-1-({4-[4-(trifluoromethyl)phenyl]-1H-imidazol-1-yl}methyl)propyl (1S)-1-{[(2-pyridinylsulfonyl)amino]acetyl}pentylcarbamate] gave an IC50 of under 10 nM.
`CCCC[C@H](NC(=O)O[C@H](COc1ccc(-n2ccnc2)cc1)C(C)(C)C)C(=O)CNS(=O)(=O)c1ccccn1` [Example 19, (1S)-1-{[4-(1H-imidazol-1-yl)phenoxy]methyl}-2,2-dimethylpropyl (1S)-1-{[(2-pyridinylsulfonyl)amino]acetyl}pentylcarbamate] gave an IC50 of under 10 nM.
